Results published in patent US20160120863A1, “SLC2A TRANSPORTER INHIBITORS” (IOMET PHARMA LTD., priority 2013, published 2016).

Key:
Type in all cases: cell-based
[1] = target: T1, human GLUT2 (Homo sapiens, UniProt P11168); assay: [3H]-deoxy-D-glucose uptake assay, GLUT2; conditions: [3H]-deoxy-D-glucose uptake in HEK293 cells stably expressing human GLUT2
T1 construct: expressed in transfected cells
T1 sequence (P11168 1-524): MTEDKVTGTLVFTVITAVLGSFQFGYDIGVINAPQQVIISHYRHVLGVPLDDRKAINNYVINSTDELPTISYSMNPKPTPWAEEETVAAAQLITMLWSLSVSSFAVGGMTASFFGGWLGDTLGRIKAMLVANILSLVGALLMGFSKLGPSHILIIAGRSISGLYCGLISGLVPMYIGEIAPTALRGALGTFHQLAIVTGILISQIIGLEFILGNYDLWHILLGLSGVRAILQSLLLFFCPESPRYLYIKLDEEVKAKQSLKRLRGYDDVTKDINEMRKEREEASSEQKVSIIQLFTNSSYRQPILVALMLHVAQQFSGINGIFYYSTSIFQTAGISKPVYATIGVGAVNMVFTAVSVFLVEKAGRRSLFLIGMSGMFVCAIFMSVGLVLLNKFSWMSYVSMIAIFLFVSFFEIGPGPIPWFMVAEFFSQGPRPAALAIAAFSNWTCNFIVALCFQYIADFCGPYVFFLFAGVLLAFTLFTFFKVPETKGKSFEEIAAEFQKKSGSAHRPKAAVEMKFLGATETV
Description: (§1) HEK293 cells were engineered to stably express either human GLUT1, GLUT2, GLUt3 or GLUT4 by transfection with the pReceiver-Lv105 plasmid, containing either hGLUT1, hGLUT2, hGLUT3, or hGLUT4 gene constructs with lipofectamine 2000, hGLUT1- hGLUT2- hGLUT3- or hGLUT4-overexpressing polyclonal populations were isolated under purinomycin selective pressure (1 μg/ml) and maintained in Dulbecco's modified Eagle's medium supplemented with 1 μg/ml purinomycin+10% foetal bovine serum (FBS).
60,000 cells per well were seeded overnight into poly-D-lysine coasted 96-well plates. […] 90 μl of test compounds were added in glucose-free uptake buffer and cells were incubated at 37° C. for 30 min.
(§2) Cells were then washed twice with ice-cold PBS and 100 μl of Microscint-20 was added per well. Glucose uptake was quantified with a scintillation counter. The half maximal inhibitory concentration (IC50) (a measure of the effectiveness of the test compound in inhibiting glucose uptake) was determined.

[2] = target: T2, human GLUT3 (Homo sapiens, UniProt P11169); assay: [3H]-deoxy-D-glucose uptake assay, GLUT3; conditions: [3H]-deoxy-D-glucose uptake in HEK293 cells stably expressing human GLUT3
T2 construct: expressed in transfected cells
T2 sequence (P11169 1-496): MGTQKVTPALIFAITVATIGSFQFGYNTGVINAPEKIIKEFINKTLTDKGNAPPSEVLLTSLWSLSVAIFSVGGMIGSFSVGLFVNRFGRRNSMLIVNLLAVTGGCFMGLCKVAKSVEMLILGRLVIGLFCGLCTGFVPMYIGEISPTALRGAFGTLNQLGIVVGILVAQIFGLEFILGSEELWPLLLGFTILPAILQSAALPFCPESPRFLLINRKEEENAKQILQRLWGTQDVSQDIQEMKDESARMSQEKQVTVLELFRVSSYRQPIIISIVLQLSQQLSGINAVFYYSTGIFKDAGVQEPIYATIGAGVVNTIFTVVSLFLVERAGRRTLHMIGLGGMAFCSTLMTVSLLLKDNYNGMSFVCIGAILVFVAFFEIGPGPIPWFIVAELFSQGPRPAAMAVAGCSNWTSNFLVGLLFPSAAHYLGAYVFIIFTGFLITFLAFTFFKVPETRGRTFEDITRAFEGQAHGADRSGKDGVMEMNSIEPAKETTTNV
Description: as §1
(§3) 60,000 cells per well were seeded overnight into poly-D-lysine coasted 96-well plates. Following media removal, cells were washed twice in warm glucose-free uptake buffer (25 mM HEPES/KOH pH 7.4, 125 mM NaCl, 4.8 mM KCl, 1.2 mM MgSO4, 1.2 mM CaCl2, 1.2 mM KH2PO4). 90 μl of test compounds were added in glucose-free uptake buffer and cells were incubated at 37° C. for 30 min. 10 μl of [3H]-deoxy-D-glucose (0.25 μCi, 125 μM final assay concentration) was then added per well in glucose-free uptake buffer and uptake was allowed to proceed at 37° C. for 30 min.
as §2

[3] = target: T3, human GLUT1 (Homo sapiens, UniProt P11166); assay: [3H]-deoxy-D-glucose uptake assay, GLUT1; conditions: [3H]-deoxy-D-glucose uptake in HEK293 cells stably expressing human GLUT1
T3 construct: expressed in transfected cells
T3 sequence (P11166 1-492): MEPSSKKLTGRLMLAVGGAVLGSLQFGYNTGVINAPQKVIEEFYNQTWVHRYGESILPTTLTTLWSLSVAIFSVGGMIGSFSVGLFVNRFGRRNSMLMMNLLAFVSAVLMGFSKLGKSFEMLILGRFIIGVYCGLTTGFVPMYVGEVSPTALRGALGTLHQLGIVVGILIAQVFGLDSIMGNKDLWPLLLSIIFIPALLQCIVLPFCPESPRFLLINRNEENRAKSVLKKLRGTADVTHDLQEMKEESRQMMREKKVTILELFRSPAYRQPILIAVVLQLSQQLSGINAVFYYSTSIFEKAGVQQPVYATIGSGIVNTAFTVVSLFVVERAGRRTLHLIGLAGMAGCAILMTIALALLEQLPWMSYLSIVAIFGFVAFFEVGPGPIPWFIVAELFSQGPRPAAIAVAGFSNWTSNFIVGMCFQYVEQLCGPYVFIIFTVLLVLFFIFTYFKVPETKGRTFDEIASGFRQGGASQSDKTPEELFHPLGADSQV
Procedure, shortened: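 HEK293 cells stably overexpressing human GLUT1 or GLUT2, seeded at 60,000 per well, treated with compounds in glucose-free uptake buffer for 30 min at 37 °C. [3H]-deoxy-D-glucose uptake quantified by scintillation counting after ice-cold PBS washes; IC50 determined.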

[4] = target: T4, human GLUT4 (Homo sapiens, UniProt P14672); assay: [3H]-deoxy-D-glucose uptake assay, GLUT4; conditions: [3H]-deoxy-D-glucose uptake in HEK293 cells stably expressing human GLUT4
T4 construct: expressed in transfected cells
T4 sequence (P14672 1-509): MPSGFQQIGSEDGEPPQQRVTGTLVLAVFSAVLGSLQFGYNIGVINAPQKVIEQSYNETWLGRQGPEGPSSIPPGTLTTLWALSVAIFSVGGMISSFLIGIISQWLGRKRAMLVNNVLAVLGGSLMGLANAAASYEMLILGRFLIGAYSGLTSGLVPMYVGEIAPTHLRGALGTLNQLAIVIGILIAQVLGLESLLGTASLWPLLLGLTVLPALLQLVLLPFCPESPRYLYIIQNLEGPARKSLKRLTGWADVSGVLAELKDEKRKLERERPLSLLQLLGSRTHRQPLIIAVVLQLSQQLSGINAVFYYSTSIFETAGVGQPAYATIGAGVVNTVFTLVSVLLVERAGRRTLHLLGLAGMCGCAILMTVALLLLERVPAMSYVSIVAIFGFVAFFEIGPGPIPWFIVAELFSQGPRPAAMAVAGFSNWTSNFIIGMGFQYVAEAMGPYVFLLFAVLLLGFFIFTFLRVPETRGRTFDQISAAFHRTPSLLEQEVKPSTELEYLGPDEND
Description: as §1, §3, §2

GLUT2 pIC50 [1]	GLUT3 pIC50 [2]	GLUT1 pIC50 [3]	GLUT4 pIC50 [4]	SMILES
+++ (pIC50 ≧ 6.00)	+++ (pIC50 ≧ 6.00)	+++ (pIC50 ≧ 6.00)	+++ (pIC50 ≧ 6.00)	O=C(c1cccc(F)c1)N1CCN(Cc2c(-c3ccc(Cl)cc3)nc3ccc(-c4ccccc4)cn23)CC1 [Compound 8]
+− (pIC50 < 4.00)	+ (pIC50 4.00-4.99)	+− (pIC50 < 4.00)	++ (pIC50 5.00-5.99)	Fc1ccc(-c2ccc3nc(-c4ccc(Cl)cc4)c(CN4CCOCC4)n3c2)cc1 [Compound 79]
–	+++ (pIC50 ≧ 6.00)	+++ (pIC50 ≧ 6.00)	+++ (pIC50 ≧ 6.00)	Fc1ccccc1-c1ccc2nc(-c3ccc(Cl)cc3)c(CN3CCOCC3)n2c1 [Compound 80]
–	+++ (pIC50 ≧ 6.00)	+++ (pIC50 ≧ 6.00)	+++ (pIC50 ≧ 6.00)	Clc1ccc(-c2nc3ccc(-c4ccccc4Cl)cn3c2CN2CCOCC2)cc1 [Compound 116]
+++ (pIC50 ≧ 6.00)	+++ (pIC50 ≧ 6.00)	+++ (pIC50 ≧ 6.00)	+++ (pIC50 ≧ 6.00)	Fc1cccc(F)c1-c1ccc2nc(-c3ccc(Cl)cc3)c(CN3CCOCC3)n2c1 [Compound 143]
+++ (pIC50 ≧ 6.00)	+++ (pIC50 ≧ 6.00)	+++ (pIC50 ≧ 6.00)	+++ (pIC50 ≧ 6.00)	Clc1ccc(-c2nc3cnc(C4CC4)cn3c2CN2CCOCC2)cc1 [Compound 164]
–	+++ (pIC50 ≧ 6.00)	+++ (pIC50 ≧ 6.00)	+++ (pIC50 ≧ 6.00)	Cc1c(-c2ccccc2)ccc2nc(-c3ccc(Cl)cc3)c(CN3CCOCC3)n12 [Compound 170]
+++ (pIC50 ≧ 6.00)	+++ (pIC50 ≧ 6.00)	+++ (pIC50 ≧ 6.00)	+++ (pIC50 ≧ 6.00)	CC(=O)N1CCN(Cc2c(-c3ccc(Cl)cc3)nc3cnc(C4CC4)cn23)CC1 [Compound 187]
+++ (pIC50 ≧ 6.00)	+++ (pIC50 ≧ 6.00)	+++ (pIC50 ≧ 6.00)	+++ (pIC50 ≧ 6.00)	CC(=O)N1CCN(Cc2c(-c3ccc(Cl)cc3)nc3ccc(-c4ccccc4C#N)cn23)CC1 [Compound 214]
+++ (pIC50 ≧ 6.00)	+++ (pIC50 ≧ 6.00)	+++ (pIC50 ≧ 6.00)	+++ (pIC50 ≧ 6.00)	Fc1cccc(F)c1-c1cn2c(CN3CCOCC3)c(-c3ccc(Cl)cc3)nc2cn1 [Compound 238]
++ (pIC50 5.00-5.99)	+++ (pIC50 ≧ 6.00)	+++ (pIC50 ≧ 6.00)	+++ (pIC50 ≧ 6.00)	CN(c1ccc2nc(-c3ccc(Cl)cc3)c(CN3CCOCC3)n2c1)S(C)(=O)=O [Compound 252]
+++ (pIC50 ≧ 6.00)	+++ (pIC50 ≧ 6.00)	+++ (pIC50 ≧ 6.00)	+++ (pIC50 ≧ 6.00)	O=C(c1ccncc1)N1CCN(Cc2c(-c3ccc(Cl)cc3)nc3cnc(C4CC4)cn23)CC1 [Compound 265]
+++ (pIC50 ≧ 6.00)	+++ (pIC50 ≧ 6.00)	+++ (pIC50 ≧ 6.00)	+++ (pIC50 ≧ 6.00)	CC(=O)N1CCN(Cc2c(-c3ccc(Cl)cc3Cl)nc3cnc(C4CC4)cn23)CC1 [Compound 271]
+++ (pIC50 ≧ 6.00)	+++ (pIC50 ≧ 6.00)	+++ (pIC50 ≧ 6.00)	+++ (pIC50 ≧ 6.00)	O=C(c1cnccn1)N1CCN(Cc2c(-c3ccc(Cl)cc3Cl)nc3cnc(C4CC4)cn23)CC1 [Compound 273]
+++ (pIC50 ≧ 6.00)	+++ (pIC50 ≧ 6.00)	+++ (pIC50 ≧ 6.00)	+++ (pIC50 ≧ 6.00)	O=C(c1ccnnc1)N1CCN(Cc2c(-c3ccc(Cl)cc3Cl)nc3cnc(C4CC4)cn23)CC1 [Compound 296]
+++ (pIC50 ≧ 6.00)	+++ (pIC50 ≧ 6.00)	+++ (pIC50 ≧ 6.00)	+++ (pIC50 ≧ 6.00)	O=C(C1CCOCC1)N1CCN(Cc2c(-c3ccc(Cl)cc3Cl)nc3cnc(C4CC4)cn23)CC1 [Compound 297]
++ (pIC50 5.00-5.99)	+++ (pIC50 ≧ 6.00)	+++ (pIC50 ≧ 6.00)	+++ (pIC50 ≧ 6.00)	COCC(=O)N1CCN(Cc2c(-c3ccc(Cl)cc3)nc3ccc(N(C)S(C)(=O)=O)cn23)CC1 [Compound 303]
+++ (pIC50 ≧ 6.00)	+++ (pIC50 ≧ 6.00)	+++ (pIC50 ≧ 6.00)	+++ (pIC50 ≧ 6.00)	O=C(c1cscn1)N1CCN(Cc2c(-c3ccc(Cl)cc3Cl)nc3cnc(C4CC4)cn23)CC1 [Compound 306]
++ (pIC50 5.00-5.99)	+++ (pIC50 ≧ 6.00)	+++ (pIC50 ≧ 6.00)	+++ (pIC50 ≧ 6.00)	CN(c1ccc2nc(-c3ccc(Cl)cc3)c(CN3CCN(C(=O)C4COC4)CC3)n2c1)S(C)(=O)=O [Compound 309]
++ (pIC50 5.00-5.99)	+++ (pIC50 ≧ 6.00)	+++ (pIC50 ≧ 6.00)	+++ (pIC50 ≧ 6.00)	CN(c1ccc2nc(-c3ccc(Cl)cc3)c(CN3CCN(C(=O)c4ccnnc4)CC3)n2c1)S(C)(=O)=O [Compound 310]
